According to ChEMBL document CHEMBL3352022, “Preparation and biological evaluation of 1'-cyano-2'-C-methyl pyrimidine nucleosides as HCV NS5B polymerase inhibitors” (Bioorg Med Chem Lett, 2014):

Legend:
[1] = Inhibition of HCV1b NS5B polymerase; parameters: species or system Hepatitis C virus subtype 1b
Hepatitis C virus [2] = experiment: Antiviral activity against HCV1a assessed as inhibition of viral replication by cell based 384 well format assay; format: functional, Hepacivirus hominis; conditions: subtype 1a
Hepatitis C virus [3] = experiment: Antiviral activity against HCV1b assessed as inhibition of viral replication by cell based 384 well format assay; format: functional, Hepacivirus hominis; conditions: genotype 1b
Hepatitis C virus [4] = experiment: Antiviral activity against HCV1b in Rluc cells assessed as TP level per million cells after 24 hrs by liquid chromatography; format: functional, Hepacivirus hominis, genotype 1b

Compound | IC50 [1] [µM] | EC50 (Hepatitis C virus [2]) [nM] | EC50 (Hepatitis C virus [3]) [nM] | Activity (Hepatitis C virus [4]) [pmol]
C[C@@]1(O)[C@H](O)[C@@H](CO)O[C@@]1(C#N)n1ccc(=O)[nH]c1=O | 27 | > 89000 | > 89000 | 
C[C@@]1(O)[C@H](O)[C@@H](CO)O[C@H]1n1ccc(N)nc1=O | 1.67 | 2500 | 2800 | 
C[C@@]1(O)[C@H](O)[C@@H](CO)O[C@@]1(C#N)n1ccc(N)nc1=O | 17.7 | 76000 | > 89000 | 
CC(C)OC(=O)[C@H](C)N[P@+]([O-])(OC[C@H]1O[C@@](C#N)(c2ccc3c(N)ncnn23)[C@](C)(O)[C@@H]1OC(=O)C(C)C)Oc1ccccc1 [GS-6620] |  | 94 | 240 | 40
CC(C)OC(=O)[C@H](C)N[P@](=O)(OC[C@H]1O[C@@](C#N)(n2ccc(N)nc2=O)[C@](C)(O)[C@@H]1OC(=O)C(C)C)Oc1ccccc1 |  | 250 | 600 | 
C[C@@]1(O)[C@H](O)[C@@H](CO)O[C@@]1(C#N)c1ccc2c(N)ncnn12 |  | > 89000 | > 89000 | 
